From US9273029B2, “Pyridine-and pyrazine derivatives” (Merck Patent GmbH, priority 2011, dated 2016) come the findings set out here.

In assay [1] the target is IKKε (Homo sapiens (Human), UniProt Q14164). Put plainly: IKKε kinase assay (384-well Flashplate). The class given is biochemical. The settings on record: 10 μM ATP, 2 hours at 30° C.; read-out: IKKε enzyme assay IC50. The procedure:
IKKε—Kinase Assay (IKKepsilon)
The kinase assay is performed either as 384-well Flashplate assay (for e.g. Topcount measurement). 1 nM IKKε, 800 nM biotinylated IκBα(19-42) peptide (Biotin-C6-C6-[…]) SEQ ID NO: 1 and 10 μM ATP (spiked with 0.3 μCi ^33P-ATP/well) are incubated in a total volume of 50 μl (10 mM MOPS, 10 mM Mg-acetat, 0.1 mM EGTA, 1 mM Dithiothreitol,0.02% Brij35, 0.1% BSA, 0.1% BioStab, pH 7.5) with or without test compound for 2 hours at 30° C. The reaction is stopped with 25 μl 200 mM EDTA. After 30 Min at room temperature the liquid is removed and each well washed thrice with 100 μl 0.9% sodium chloride solution. Non-specific reaction is determined in presence of 3 μM MSC2119074 (BX-795). Radioactivity is measured with Topcount (PerkinElmer). Results (e.g. IC50-values) are calculated with program tools provided by the IT-department (e.g. AssayExplorer, Symyx).

Assay [2] addresses TANK binding kinase (TBK1) (Homo sapiens (Human), UniProt Q9UHD2). As to the kind of experiment: TBK1 enzyme assay (384-well Flashplate kinase assay). In kind it is biochemical. As to conditions: 10 μM ATP, 120 Min at 30° C. The procedure: The kinase assay is performed as 384-well Flashplate assay (for e.g. Topcount measurement. 0.6 nM TANK binding kinase (TBK1), 800 nM biotinylated MELK-derived peptide (Biotin-Ah-Ah-[…]) SEQ ID NO: 2 and 10 μM ATP (spiked with 0.25 μCi ^33P-ATP/well) are incubated in a total volume of 50 μl (10 mM MOPS, 10 mM Mg-acetat, 0.1 mM EGTA, 1 mM DTT, 0.02% Brij35, 0.1% BSA, pH 7.5) with or without test compound for 120 Min at 30° C. The reaction is stopped with 25 μl 200 mM EDTA. After 30 Min at room temperature the liquid is removed and each well washed thrice with 100 μl 0.9% sodium chloride solution. Nonspecific reaction is determined in presence of 100 nM Staurosporine. Radioactivity is measured in a Topcount (PerkinElmer). Results (e.g. IC50-values) are calculated with program tools provided by the IT-department (e.g. AssayExplorer, Symyx).

Sequence of TANK binding kinase (TBK1) (Q9UHD2 whole entry): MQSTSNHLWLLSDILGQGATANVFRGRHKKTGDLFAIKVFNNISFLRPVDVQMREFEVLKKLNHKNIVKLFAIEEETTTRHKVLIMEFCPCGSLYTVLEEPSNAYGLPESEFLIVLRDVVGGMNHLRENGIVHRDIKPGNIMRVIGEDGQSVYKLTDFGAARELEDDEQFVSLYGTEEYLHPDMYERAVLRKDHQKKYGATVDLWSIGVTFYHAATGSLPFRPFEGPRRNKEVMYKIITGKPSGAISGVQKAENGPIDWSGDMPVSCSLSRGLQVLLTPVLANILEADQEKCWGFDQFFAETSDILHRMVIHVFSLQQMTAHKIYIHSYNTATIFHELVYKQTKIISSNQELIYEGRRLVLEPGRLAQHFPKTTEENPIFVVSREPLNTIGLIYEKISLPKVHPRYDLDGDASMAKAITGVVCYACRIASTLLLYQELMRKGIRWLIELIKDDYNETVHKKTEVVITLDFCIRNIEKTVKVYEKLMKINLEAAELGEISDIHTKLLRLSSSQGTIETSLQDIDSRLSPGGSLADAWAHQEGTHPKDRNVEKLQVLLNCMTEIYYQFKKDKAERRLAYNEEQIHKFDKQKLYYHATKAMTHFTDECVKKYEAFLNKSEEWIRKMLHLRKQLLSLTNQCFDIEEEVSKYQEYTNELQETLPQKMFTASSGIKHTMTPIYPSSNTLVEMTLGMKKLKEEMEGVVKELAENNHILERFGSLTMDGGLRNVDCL
Sequence of IKKε (Q14164 whole entry): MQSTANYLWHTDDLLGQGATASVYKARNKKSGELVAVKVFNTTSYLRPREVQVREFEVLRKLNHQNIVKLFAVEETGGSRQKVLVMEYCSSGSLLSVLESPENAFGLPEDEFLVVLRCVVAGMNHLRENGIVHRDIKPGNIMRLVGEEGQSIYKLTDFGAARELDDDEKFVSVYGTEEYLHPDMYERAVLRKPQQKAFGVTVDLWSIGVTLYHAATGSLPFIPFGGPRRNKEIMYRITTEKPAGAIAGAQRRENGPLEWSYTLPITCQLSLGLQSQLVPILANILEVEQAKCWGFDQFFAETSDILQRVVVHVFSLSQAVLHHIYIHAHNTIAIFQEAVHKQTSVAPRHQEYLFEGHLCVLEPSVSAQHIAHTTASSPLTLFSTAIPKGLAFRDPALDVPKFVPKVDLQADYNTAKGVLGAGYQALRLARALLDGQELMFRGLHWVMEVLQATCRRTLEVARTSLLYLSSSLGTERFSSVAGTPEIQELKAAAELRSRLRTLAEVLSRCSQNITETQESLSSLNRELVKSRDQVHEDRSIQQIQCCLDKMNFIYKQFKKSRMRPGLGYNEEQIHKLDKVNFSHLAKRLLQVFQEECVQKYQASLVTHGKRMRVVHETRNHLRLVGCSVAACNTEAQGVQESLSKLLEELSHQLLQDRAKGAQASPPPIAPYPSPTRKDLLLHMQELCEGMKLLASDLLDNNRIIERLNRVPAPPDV

What is called IC50 is the concentration that gives 50% inhibition. In the case of `Nc1ncc(-c2ccc[nH]2)cc1C(=O)Nc1ccncc1` [Compound A57, 2-Amino-N-pyridin-4-yl-5-(1H-pyrrol-2-yl)-nicotinamide], the results for the IC50 in assay [1] and in assay [2] were 3.3 µM and 0.41 µM, respectively. Consider `Nc1ncc(-c2cnn(CC3OCCO3)c2)nc1C(=O)Nc1ccncc1` [Compound A12, 3-Amino-6-(1-[1,3]dioxolan-2-ylmethyl-1H-pyrazol-4-yl)-pyrazine-2-carboxylic acid pyridin-4-ylamide], for which the IC50 came to 1 µM in assay [1] and 8.3 µM in assay [2]. On the same counts, the results for `Nc1ncc(-c2ccc(CN3CCOCC3)s2)cc1C(=O)Nc1ccncc1Cl` [Compound A33, 2-Amino-N-(3-chloro-pyridin-4-yl)-5-(5-morpholin-4-ylmethyl-thiophen-2-yl)-nicotinamide] are 0.6 µM and 0.25 µM. On the same counts, the results for `Cc1cc(NC(=O)c2cc(-c3csc(CN4CCOCC4)c3)cnc2N)ccn1` [Compound A15, 2-Amino-N-(2-methyl-pyridin-4-yl)-5-(5-morpholin-4-ylmethyl-thiophen-3-yl)-nicotinamide] are 2 µM and 0.67 µM.

As to `Nc1ncc(-c2ccoc2)cc1C(=O)Nc1ccncc1` [Compound A45, 2-Amino-5-furan-3-yl-N-pyridin-4-yl-nicotinamide], the results for the concentration for half-maximal inhibition (IC50) in assay [1] and in assay [2] were 0.14 µM and 0.61 µM, respectively. The compound `Nc1ncc(-c2ccc(CN3CCOCC3)s2)nc1C(=O)Nc1ccncc1` [Compound A10, 3-Amino-6-(5-morpholin-4-ylmethyl-thiophen-2-yl)-pyrazine-2-carboxylic acid pyridin-4-ylamide] came in with an IC50 in assay [2] of 1 µM.

Regarding `Nc1ncc(-c2cc[nH]c2)cc1C(=O)Nc1ccncc1` [Compound A59, 2-Amino-N-pyridin-4-yl-5-(1H-pyrrol-3-yl)-nicotinamide], the figures for the IC50 in assay [1] and in assay [2] were 0.83 µM and 0.15 µM, respectively. Regarding `COCCn1cc(-c2cnc(N)c(C(=O)Nc3ccncc3C)c2)cn1` [Compound A22, 2-Amino-5-[1-(2-methoxy-ethyl)-1H-pyrazol-4-yl]-N-(3-methyl-pyridin-4-yl)-nicotinamide], the results for the half-maximal inhibitory concentration (IC50) in assay [1] and in assay [2] were 2.4 µM and 0.69 µM, respectively. On the same counts, the results for `Nc1ncc(-c2cnn(Cc3ccccc3)c2)cc1C(=O)Nc1ccncc1` [Compound A46, 2-Amino-5-(1-benzyl-1H-pyrazol-4-yl)-N-pyridin-4-yl-nicotinamide] are 0.24 µM and 0.12 µM. The corresponding values for `Nc1ncc(-c2cnn(CCN3CCOCC3)c2)cc1C(=O)Nc1ccncc1` [Compound A51, 2-Amino-5-[1-(2-morpholin-4-yl-ethyl)-1H-pyrazol-4-yl]-N-pyridin-4-yl-nicotinamide] are 0.27 µM and 0.74 µM. The corresponding values for `Cn1cc(-c2cnc(N)c(C(=O)Nc3ccncc3)c2)cn1` [Compound A61, 2-Amino-5-(1-methyl-1H-pyrazol-4-yl)-N-pyridin-4-yl-nicotinamide] are 0.48 µM and 0.16 µM.

In the case of `COc1ccc(NC(=O)c2cc(-c3ccc(CN4CCOCC4)s3)cnc2N)cc1` [Compound A39, 2-Amino-N-(4-methoxy-phenyl)-5-(5-morpholin-4-ylmethyl-thiophen-2-yl)-nicotinamide], the IC50 in assay [1] stood at 0.39 µM; in assay [2], 0.91 µM. The corresponding values for `Cc1ccc(-c2cccc(-c3cnc(N)c(C(=O)Nc4ccncc4)c3)c2)cc1` [Compound A23, 2-Amino-5-(4′-methyl-biphenyl-3-yl)-N-pyridin-4-yl-nicotinamide] are 2.2 µM and 7.4 µM.

On to `Nc1ncc(-c2ccc(CN3CCOCC3)s2)cc1C(=O)Nc1ccnc2ccoc12` [Compound A29, 2-Amino-N-furo[3,2-b]pyridin-7-yl-5-(5-morpholin-4-ylmethyl-thiophen-2-yl)-nicotinamide], for which the IC50 in assay [1] was determined as 2.4 µM; in assay [2], 0.89 µM. The corresponding values for `Nc1ncc(-c2cnn(CCO)c2)cc1C(=O)Nc1ccncc1` [Compound A42, 2-Amino-5-[1-(2-hydroxy-ethyl)-1H-pyrazol-4-yl]-N-pyridin-4-yl-nicotinamide] are 1.7 µM and 0.67 µM. The corresponding values for `Cn1ccc(-c2cnc(N)c(C(=O)Nc3ccncc3)c2)n1` [Compound A47, 2-Amino-5-(1-methyl-1H-pyrazol-3-yl)-N-pyridin-4-yl-nicotinamide] are 0.38 µM and 0.33 µM. The corresponding values for `COCCn1cc(-c2cnc(N)c(C(=O)Nc3ccnc4ccoc34)c2)cn1` [Compound A28, 2-Amino-N-furo[3,2-b]pyridin-7-yl-5-[1-(2-methoxy-ethyl)-1H-pyrazol-4-yl]-nicotinamide] are 2.9 µM and 1.2 µM. `COC(=O)c1cnccc1NC(=O)c1cc(-c2ccc(CN3CCOCC3)s2)cnc1N` [Compound A35, 4-{[2-Amino-5-(5-morpholin-4-ylmethyl-thiophen-2-yl)-pyridine-3-carbonyl]-amino}-nicotinic acid methyl ester]: the IC50 in assay [2] stood at 0.45 µM. With `COCCn1cc(-c2cnc(N)c(C(=O)Nc3ccncc3Cl)c2)cn1` [Compound A38, 2-Amino-N-(3-chloro-pyridin-4-yl)-5-[1-(2-methoxy-ethyl-)-1H-pyrazol-4-yl]nicotinamide], the half-maximal inhibitory concentration (IC50) was 1.5 µM in assay [1] and 0.74 µM in assay [2].

Turning to `Nc1ncc(-c2cc3ccccc3s2)cc1C(=O)Nc1ccncc1` [Compound A52, 2-Amino-5-benzo[b]thiophen-2-yl-N-pyridin-4-yl-nicotinamide], the IC50 in assay [2] came to 0.63 µM. For the compound `Nc1ncc(-c2ccc(C(=O)O)cc2)cc1C(=O)Nc1ccncc1` [Compound A31, 4-[6-Amino-5-(pyridin-4-ylcarbamoyl)-pyridin-3-yl]-benzoic acid], the values for the 50% inhibitory concentration (IC50) in assay [1] and in assay [2] were 0.99 µM and 0.4 µM, respectively.

For the compound `Cc1cc(NC(=O)c2cc(-c3ccc(CN4CCOCC4)s3)cnc2N)cc(C)n1` [Compound A26, 2-Amino-N-(2,6-dimethyl-pyridin-4-yl)-5-(5-morpholin-4-ylmethyl-thiophen-2-yl)-nicotinamide], the half-inhibitory concentration (IC50) is 5.2 µM in assay [1] and 8.2 µM in assay [2]. The corresponding values for `Cc1ccc(-c2cnc(N)c(C(=O)Nc3ccncc3)c2)s1` [Compound A3, 2-Amino-5-(5-methyl-thiophen-2-yl)-N-pyridin-4-yl-nicotinamide] are 0.15 µM and 0.12 µM. The corresponding values for `Nc1ncc(-c2ccc(S(N)(=O)=O)cc2)cc1C(=O)Nc1ccncc1` [Compound A7, 2-Amino-N-pyridin-4-yl-5-(4-sulfamoyl-phenyl)-nicotinamide] are 1.8 µM and 0.15 µM. As for `Nc1ncc(-c2c[nH]c3ccccc23)cc1C(=O)Nc1ccncc1` [Compound A56, 2-Amino-5-(1H-indol-3-yl)-N-pyridin-4-yl-nicotinamide], the values for the IC50 in assay [1] and in assay [2] were 0.34 µM and 0.51 µM, respectively. On the same counts, the results for `NC(=O)Cn1cc(-c2cnc(N)c(C(=O)Nc3ccncc3)c2)cn1` [Compound A25, 2-Amino-5-(1-carbamoylmethyl-1H-pyrazol-4-yl)-N-pyridin-4-yl-nicotinamide] are 0.53 µM and 0.36 µM.

On to `Nc1ncc(-c2ccsc2)cc1C(=O)Nc1ccncc1` [Compound A49, 2-Amino-N-pyridin-4-yl-5-thiophen-3-yl-nicotinamide], for which the IC50 stood at 0.93 µM in assay [1] and 0.41 µM in assay [2].

For `Nc1ncc(-c2cn[nH]c2)cc1C(=O)Nc1ccncc1` [Compound A34, 2-Amino-5-(1H-pyrazol-4-yl)-N-pyridin-4-yl-nicotinamide], the concentration for half-maximal inhibition (IC50) in assay [1] came out at 0.74 µM; in assay [2] it was 0.28 µM. With `Nc1ncc(-c2cnc3ccccn23)cc1C(=O)Nc1ccncc1` [Compound A58], the IC50 in assay [1] stood at 1.8 µM; in assay [2] it was 0.37 µM.

As for `Nc1ncc(-c2ccc(CN3CCOCC3)s2)cc1C(=O)Nc1ccncc1` [Compound A54, 2-Amino-5-(5-morpholin-4-ylmethyl-thiophen-2-yl)-N-pyridin-4-yl-nicotinamide], the 50% inhibitory concentration (IC50) in assay [1] was 0.45 µM; in assay [2], 0.088 µM.

In assay [2], `Cn1cccc1-c1cnc(N)c(C(=O)Nc2ccncc2)c1` [Compound A50, 2-Amino-5-(1-methyl-1H-pyrrol-2-yl)-N-pyridin-4-yl-nicotinamide] registered an IC50 of 0.32 µM.

The compound `Nc1ncc(-c2cc3ccccc3[nH]2)cc1C(=O)Nc1ccncc1` [Compound A55, 2-Amino-5-(1H-indol-2-yl)-N-pyridin-4-yl-nicotinamide] returned an IC50 in assay [2] of 0.39 µM.
